Measurements from patent US7473790B2 (Pfizer Inc., priority 2003, dated 2009).

target: T1, HCV polymerase (Hepatitis C virus genotype 1b, UniProt P26663); assay: HCV polymerase primer/template-directed transcription assay (32P-GTP incorporation, filter binding); type: biochemical; details: recombinant HCV polymerase; 30 minutes at 30° C.; concentration giving 50% inhibition of polymerase-directed transcription; read-out: IC50
T1 construct: 2.5 pmoles (0.15 μg) HCV polymerase protein in a final volume of 75 μL
In short: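 Recombinant genotype 1b polymerase (30 nM) extended biotin-dG12 primer on poly(rC)300 template with 1 μM GTP plus α-32P-GTP, pH 7.2, 10 mM MgCl2, 30 min at 30° C, 1% DMSO final. Products captured on DE filters and counted. IC50 fitted from triplicate cpm, with a tight-binding correction applied below 200 nM.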

T1 sequence (P26663 2420-3010): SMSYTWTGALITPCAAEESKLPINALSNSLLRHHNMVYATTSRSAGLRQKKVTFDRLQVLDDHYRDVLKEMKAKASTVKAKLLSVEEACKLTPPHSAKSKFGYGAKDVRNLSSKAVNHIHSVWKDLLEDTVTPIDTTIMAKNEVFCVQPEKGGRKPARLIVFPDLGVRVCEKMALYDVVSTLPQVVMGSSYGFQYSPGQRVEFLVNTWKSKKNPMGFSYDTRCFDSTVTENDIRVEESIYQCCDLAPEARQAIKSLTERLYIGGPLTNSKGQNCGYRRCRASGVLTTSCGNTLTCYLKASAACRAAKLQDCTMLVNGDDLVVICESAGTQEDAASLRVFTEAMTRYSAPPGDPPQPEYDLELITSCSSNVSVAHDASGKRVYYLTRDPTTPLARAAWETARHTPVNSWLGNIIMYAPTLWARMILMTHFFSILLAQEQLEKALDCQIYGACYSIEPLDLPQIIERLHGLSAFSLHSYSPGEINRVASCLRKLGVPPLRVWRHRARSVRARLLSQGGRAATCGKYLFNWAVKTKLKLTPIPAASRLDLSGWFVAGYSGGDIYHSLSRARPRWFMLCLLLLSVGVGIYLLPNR

| SMILES | IC50 [nM] |
| --- | --- |
| N#CC1(c2c(F)cc(CCC3(C4CCCC4)CC(=O)CC(=O)O3)cc2F)CC1 (centres unmarked) [A(255), 1-{4-[2-(2-Cyclopentyl-4,6-dioxo-tetrahydro-pyran-2-yl)-ethyl]-2,6-difluoro-phenyl}-cyclopropanecarbonitrile] | 1900 |
| COc1cc(C(C)(C)C#N)c(F)cc1CCC1(C2CCCC2)CC(O)=C(Cc2nc3ncc(C)cn3n2)C(=O)O1 (centres unmarked) [A(261), 2-(4-{2-[2-Cyclopentyl-4-hydroxy-5-(6-methyl-[1,2,4]triazolo[1,5-a]pyrimidin-2-ylmethyl)-6-oxo-3,6-dihydro-2H-pyran-2-yl]-ethyl}-2-fluoro-5-methoxy-phenyl)-2-methyl-propionitrile] | 4 |
| CCNC(=O)C(C)(C)c1ccc(CCC2(C3CCCC3)CC(O)=C(Cc3nc4ncc(C)cn4n3)C(=O)O2)cc1F (centres unmarked) [A(268), 2-(4-{2-[2-Cyclopentyl-4-hydroxy-5-(6-methyl-[1,2,4]triazolo[1,5-a]pyrimidin-2-ylmethyl)-6-oxo-3,6-dihydro-2H-pyran-2-yl]-ethyl}-2-fluoro-phenyl)-N-ethyl-isobutyramide] | 680 |
| Cc1cnc2nc(CC3=C(O)CC(CCc4ccc(C(C)(C)CO)c(F)c4)(C4CCCC4)OC3=O)nn2c1 (centres unmarked) [A(269), 6-Cyclopentyl-6-{2-[3-fluoro-4-(2-hydroxy-1,1-dimethyl-ethyl)-phenyl]-ethyl}-4-hydroxy-3-(6-methyl-[1,2,4]triazolo[1,5-a]pyrimidin-2-ylmethyl)-5,6-dihydro-pyran-2-one] | 26 |
| COC(=O)C(C)(C)c1ccc(CCC2(C3CCCC3)CC(O)=C(Cc3nc4ncc(C)cn4n3)C(=O)O2)cc1F (centres unmarked) [A(270), 2-(4-{2-[2-Cyclopentyl-4-hydroxy-5-(6-methyl-[1,2,4]triazolo[1,5-a]pyrimidin-2-ylmethyl)-6-oxo-3,6-dihydro-2H-pyran-2-yl]-ethyl}-2-fluoro-phenyl)-2-methyl-propionic acid methyl ester] | 37 |
| COc1ccc(CCC2(C3CCCC3)CC(O)=C(Cc3nc4nc(C)cc(C)n4n3)C(=O)O2)cc1F (centres unmarked) [B(01)] | 15 |
| CCOc1ccc(CCC2(C3CCCC3)CC(O)=C(Cc3nc4nc(C)cc(C)n4n3)C(=O)O2)cc1F (centres unmarked) [B(02), 6-Cyclopentyl-3-(5,7-dimethyl-[1,2,4]triazolo[1,5-a]pyrimidin-2-ylmethyl)-6-[2-(4-ethoxy-3-fluoro-phenyl)-ethyl]-4-hydroxy-5,6-dihydro-pyran-2-one] | 27 |
| Cc1cc(C)n2nc(CC3=C(O)CC(CCc4cccc(C(C)(C)C)c4)(C4CCCC4)OC3=O)nc2n1 (centres unmarked) [B(03), 6-[2-(3-tert-Butyl-phenyl)-ethyl]-6-cyclopentyl-3-(5,7-dimethyl-[1,2,4]triazolo[1,5-a]pyrimidin-2-ylmethyl)-4-hydroxy-5,6-dihydro-pyran-2-one] | 5 |
| Cc1cc(C)n2nc(CC3=C(O)CC(CCc4ccc(-c5c(C)noc5C)cc4)(C4CCCC4)OC3=O)nc2n1 (centres unmarked) [B(04), 6-Cyclopentyl-6-{2-[4-(3,5-dimethyl-isoxazol-4-yl)-phenyl]-ethyl}-3-(5,7-dimethyl-[1,2,4]triazolo[1,5-a]pyrimidin-2-ylmethyl)-4-hydroxy-5,6-dihydro-pyran-2-one] | 24 |
| COc1ccc(CCC2(C3CCCC3)CC(O)=C(Cc3ccc(-c4csnn4)cc3)C(=O)O2)cc1Cl (centres unmarked) [B(05), 6-[2-(3-Chloro-4-methoxy-phenyl)-ethyl]-6-cyclopentyl-4-hydroxy-3-(4-[1,2,3]thiadiazol-4-yl-benzyl)-5,6-dihydro-pyran-2-one] | 130 |
| COc1ccc(CCC2(C3CCCC3)CC(O)=C(Cc3ccc(-n4c(C)ccc4C)cc3)C(=O)O2)cc1Cl (centres unmarked) [B(06), 6-[2-(3-Chloro-4-methoxy-phenyl)-ethyl]-6-cyclopentyl-3-[4-(2,5-dimethyl-pyrrol-1-yl)-benzyl]-4-hydroxy-5,6-dihydro-pyran-2-one] | 150 |
| CCc1cc(CCC2(C3CCCC3)CC(O)=C(Cc3nc4nc(C)cc(C)n4n3)C(=O)O2)ccc1O (centres unmarked) [B(07), 6-Cyclopentyl-3-(5,7-dimethyl-[1,2,4]triazolo[1,5-a]pyrimidin-2-ylmethyl)-6-[2-(3-ethyl-4-hydroxy-phenyl)-ethyl]-4-hydroxy-5,6-dihydro-pyran-2-one] | 1 |
| Cc1cc(C)n2nc(CC3=C(O)CC(CCc4ccc(O)c(C(C)(C)C)c4)(C4CCCC4)OC3=O)nc2n1 (centres unmarked) [B(08), 6-[2-(3-tert-Butyl-4-hydroxy-phenyl)-ethyl]-6-cyclopentyl-3-(5,7-dimethyl-[1,2,4]triazolo[1,5-a]pyrimidin-2-ylmethyl)-4-hydroxy-5,6-dihydro-pyran-2-one] | 13 |
| COc1ccc(CCC2(C3CCCC3)CC(O)=C(Cc3nc4nc(C)cc(C)n4n3)C(=O)O2)cc1C (centres unmarked) [B(09), 6-Cyclopentyl-3-(5,7-dimethyl-[1,2,4]triazolo[1,5]pyrimidin-2-ylmethyl)-4-hydroxy-6-[2-(4-methoxy-3-methyl-phenyl)-ethyl]-5,6-dihydro-pyran-2-one] | 54 |
| CCOc1ccc(CCC2(C3CCCC3)CC(O)=C(Cc3nc4nc(C)cc(C)n4n3)C(=O)O2)cc1C (centres unmarked) [B(10), 6-Cyclopentyl-3-(5,7-dimethyl-[1,2,4]triazolo[1,5]pyrimidin-2-ylmethyl)-6-[2-(4-ethoxy-3-methyl-phenyl)-ethyl]-4-hydroxy-5,6-dihydro-pyran-2-one] | 53 |
| Cc1cc(C)n2nc(CC3=C(O)CC(CCc4ccc(OC(C)C)c(C)c4)(C4CCCC4)OC3=O)nc2n1 (centres unmarked) [B(11), 6-Cyclopentyl-3-(5,7-dimethyl-[1,2,4]triazolo[1,5]pyrimidin-2-ylmethyl)-4-hydroxy-6-[2-(4-isopropoxy-3-methyl-phenyl)-ethyl]-5,6-dihydro-pyran-2-one] | 19 |
| CCc1cccc(CCC2(C3CCCC3)CC(O)=C(Cc3nc4nc(C)cc(C)n4n3)C(=O)O2)c1 (centres unmarked) [B(12), 6-Cyclopentyl-3-(5,7-dimethyl-[1,2,4]triazolo[1,5]pyrimidin-2-ylmethyl)-6-[2-(3-ethyl-phenyl)-ethyl]-4-hydroxy-5,6-dihydro-pyran-2-one] | 26 |
| COc1ccc(CCC2(C3CCCC3)CC(O)=C(Cc3nc4nc(C)cc(C)n4n3)C(=O)O2)cc1Cl (centres unmarked) [B(13), 6-[2-(3-Chloro-4-methoxy-phenyl)-ethyl]-6-cyclopentyl-3-(5,7-dimethyl-[1,2,4]triazolo[1,5-a]pyrimidin-2-ylmethyl)-dihydro-pyran-2,4-dione] | 20 |
| CC(C)Oc1ccc(CCC2(C3CCCC3)CC(O)=C(Cc3nc4cc(Cl)ccc4n3C(C)C)C(=O)O2)cc1F (centres unmarked) [B(14), 3-(5-Chloro-1-isopropyl-1H-benzoimidazol-2-ylmethyl)-6-cyclopentyl-6-[2-(3-fluoro-4-isopropoxy-phenyl)-ethyl]-4-hydroxy-5,6-dihydro-pyran-2-one] | 630 |
| CC(C)Oc1ccc(CCC2(C3CCCC3)CC(O)=C(Cc3nc4ccccc4n3C)C(=O)O2)cc1F (centres unmarked) [B(16), 6-Cyclopentyl-6-[2-(3-fluoro-4-isopropoxy-phenyl)-ethyl]-4-hydroxy-3-(1-methyl-1H-benzoimidazol-2-ylmethyl)-5,6-dihydro-pyran-2-one] | 900 |
| COc1ccc(CC2=C(O)CC(CCc3ccc(OC)c(Cl)c3)(C3CCCC3)OC2=O)cc1 (centres unmarked) [B(17), 6-[2-(3-Chloro-4-methoxy-phenyl)-ethyl]-6-cyclopentyl-4-hydroxy-3-(4-methoxy-benzyl)-5,6-dihydro-pyran-2-one] | 1100 |
| Cc1cc(C)n2nc(CC3=C(O)CC(CCc4ccc(OC(C)C)c(F)c4)(C4CCCC4)OC3=O)nc2n1 (centres unmarked) [B(18)] | 21 |
| Cc1cc(C)n2nc(CC3=C(O)CC(CCc4ccc(F)c(Cl)c4)(C4CCCC4)OC3=O)nc2n1 (centres unmarked) [B(19), 6-[2-(3-Chloro-4-fluoro-phenyl)-ethyl]-6-cyclopentyl-3-(5,7-dimethyl-[1,2,4]triazolo[1,5]pyrimidin-2-ylmethyl)-4-hydroxy-5,6-dihydro-pyran-2-one] | 60 |
| CCOc1ccc(CCC2(C3CCCC3)CC(O)=C(Cc3nc4nc(C)cc(C)n4n3)C(=O)O2)cc1Cl (centres unmarked) [B(20), 6-[2-(3-Chloro-4-ethoxy-phenyl)-ethyl]-6-cyclopentyl-3-(5,7-dimethyl-[1,2,4]triazolo[1,5]pyrimidin-2-ylmethyl)-4-hydroxy-5,6-dihydro-pyran-2-one] | 4 |
| COc1ccc(CCC2(C3CCCC3)CC(O)=C(Cc3ccc(S(C)(=O)=O)cc3)C(=O)O2)cc1Cl (centres unmarked) [B(21), 6-[2-(3-Chloro-4-methoxy-phenyl)-ethyl]-6-cyclopentyl-4-hydroxy-3-(4-methanesulfonyl-benzyl)-5,6-dihydro-pyran-2-one] | 400 |
| COc1ccc(CCC2(C3CCCC3)CC(O)=C(Cc3ccc(C#N)cc3)C(=O)O2)cc1Cl (centres unmarked) [B(22), 4-{6-[2-(3-Chloro-4-methoxy-phenyl)-ethyl]-6-cyclopentyl-4-hydroxy-2-oxo-5,6-dihydro-2-pyran-3-ylmethyl}-benzonitrile] | 1200 |
| COc1ccc(CCC2(C3CCCC3)CC(O)=C(Cc3cccc(C#N)c3)C(=O)O2)cc1Cl (centres unmarked) [B(23), 3-{6-[2-(3-Chloro-4-methoxy-phenyl)-ethyl]-6-cyclopentyl-4-hydroxy-2-oxo-5,6-dihydro-2-pyran-3-ylmethyl}-benzonitrile] | 870 |
| COc1ccc(CCC2(C3CCCC3)CC(O)=C(Cc3ccc(-n4cccn4)cc3)C(=O)O2)cc1Cl (centres unmarked) [B(24), 6-[2-(3-Chloro-4-methoxy-phenyl)-ethyl]-6-cyclopentyl-4-hydroxy-3-(4-pyrazol-1-yl-benzyl)-5,6-dihydro-pyran-2-one] | 140 |
| COc1ccc(CCC2(C3CCCC3)CC(O)=C(Cc3ccc(-n4cncn4)cc3)C(=O)O2)cc1Cl (centres unmarked) [B(25), 6-[2-(3-Chloro-4-methoxy-phenyl)-ethyl]-6-cyclopentyl-4-hydroxy-3-(4-[1,2,4]triazol-1-yl-benzyl)-5,6-dihydro-pyran-2-one] | 240 |
